# Measured values reported in US4814340A, “1,4-diaryl alkane derivatives having insecticidal and acaricidal activity” (priority 1982, dated 1989).
# Key:
# [1] = test system: green rice leafhopper (female adults); assay: Test 2 (Effect on Green Rice Leafhopper); format: in vivo; conditions: 48 hours, marked * in Table 3
# yearling carps = assay: Test 5 (Fish Toxicity); format: in vivo, carp
# Protocol: (§1) Compounds (a) through (g) described below were tested as comparative compounds in the same manner as the compounds of the present invention. All the tests were doubly carried out. Namely, each result was expressed by an average value of two data.
# A water tank having a width of 60 cm, a length of 30 cm and a height of 40 cm was filled with water, and 10 yearling carps having a body length of about 5 cm were set free in the tank and adapted to the environment in the tank. An acetone solution of a test compound was applied into water so as to become a concentration of 1 or 0.1 ppm in water by adding said acetone solution at a rate of one part by volume per 100 parts by volume of water. 48 hours after, the number of killed and living carps was counted and the effect of a test compound on carps was examined.
# plants of Solanacede = assay: phytotoxicity to plants of Solanacede
# [2] = test system: common cutworm (third-instar larvae); assay: Test 1 (Effect on Common Cutworm); format: in vivo; conditions: Spodoptera litura, 48 hours, third-instar larvae, read-out: Mortality (%)
# Protocol: as §1
# The emulsifiable concentrate of the test compound, prepared according to the method described in Formulation Example 1, was diluted with water to a specified concentration. Sweet potato leaves were sufficiently immersed in the dilution. The sweet potato leaves were dried and placed in a plastic cup having a diameter of 10 cm, and 10 third-instar larvae of common cutworm were set free in each cup. 48 hours after, the numbers of killed and living larvae were counted and the mortality was calculated.
# [3] = test system: green rice leafhopper (female adults); assay: Test 2 (Effect on Green Rice Leafhopper); format: in vivo; conditions: Nephotettix cincticeps, 48 hours, female adults, read-out: Mortality (%)
# Protocol: as §1
# Four or five seedlings of paddy rice with three leaves were bundled, and thereon the same dilution of the emulsifiable concentrate as used in Test 1 was sprayed in an amount of 3 ml. The bundle was dried and covered with a metal net cylinder, and 10 female adults of green rice leafhopper were set free in the cylinder. 48 hours after, the number of killed adults was counted.
# [4] = test system: German cockroach (female adults); assay: Test 3 (Effect on German Cockroach); format: in vivo, Blatella germanica (German cockroach); conditions: Blattella germanica, 48 hours, female adults, read-out: Mortality (%); for mortality at 1 mg/m2: 1 mg/m^2; for mortality at 5 mg/m2: 5 mg/m^2
# Protocol: as §1
# One ml of an acetone solution of a test compound of a specified concentration was poured in a high Petri dish having a diameter of 9 cm and a height of 9 cm. The Petri dish was allowed to stand, and thereby the acetone was evaporated. The upper part of the inner wall of the Petri dish was treated with butter to prevent the adults of German cockroach from escaping from the Petri dish. 10 female adults of German cockroach were set free in each Petri dish. 48 hours after, the number of killed adults was counted.
# [5] = test system: two-spotted spider mite (adults); assay: Test 4 (Effect on Two-Spotted Spider Mite); format: in vivo; conditions: Tetranychus urticae; 200 ppm; 24 hours; adults; read-out: Mortality (%)
# Protocol: as §1
# A kidney bean leaf disc (20 mm in diameter) perforated with a cork borer was placed on water-impregnated absorbent cotton, and thereon 20 adults of two-spotted spider mite were set free, and the resulting set was allowed to stand around the clock. The same dilution of the emulsifiable concentrate of a test compound having a concentration of 200 ppm as used in Test 1 and Test 2, was applied by an applicator having a diameter of 20 cm and a height of 60 cm in an amount of 3 ml. 24 hours after, the number of killed adults was counted.
Compound,Rate of Number of Adults KnockedDown ([1]; 20 ppm) [%],Rate of Number of Adults KnockedDown ([1]; 100 ppm) [%],Mortality(%) 48 Hours After (yearling carps; 0.1 ppm in water) [%],Mortality(%) 48 Hours After (yearling carps; 1 ppm in water) [%],phytotoxicity to plants of Solanacede (plants of Solanacede),mortality at 20 ppm [2] [%],mortality at 100 ppm [2] [%],mortality at 20 ppm [3] [%],mortality at 100 ppm [3] [%],mortality at 1 mg/m2 [4] [%],mortality at 5 mg/m2 [4] [%],mortality at 200 ppm [5] [%]
"CCOc1ccc(C(C)(C)CCCN2C(=O)C3=C(CCCC3)C2=O)cc1 [Compound 12, 1-(3,4,5,6-Tetrahydrophthalimido)-4-(4-ethoxyphenyl)-4-methylpentane]",40,80,,,,,,,,,,
"CC(C)C(C(=O)OC(C#N)c1cccc(Oc2ccccc2)c1)c1ccc(Cl)cc1 (stereo not shown) [(g), Fenvalerate, reference compound]",,,100,100,observed,,,,,,,
CCOc1ccc(C(C)(C)CCCc2cccc(Oc3ccccc3)c2)cc1 [Compound 24],,,0,0,,100,100,100,100,100,100,95
CCOc1ccc(C(C)(C)CCCc2ccc(F)c(Oc3ccccc3)c2)cc1Cl [Compound 57],,,0,0,,100,100,100,100,100,100,91
1-(3-Benzoylphenyl)-4-(4-chlorophenyl)-4-methylpentane [Compound 11],60,90,,,,,,,,,,
